Laboratory results from ChEMBL document CHEMBL1151288, “Dichlorinated pulvinic acid derivative from a Malaysian Scleroderma sp” (J Nat Prod, 2005).

Legend:
Bacillus subtilis = experiment: Antibacterial activity against Bacillus subtilis at 40 ug; format: functional; conditions: read-out: IZ
P388 = experiment: Cytotoxicity against mouse P388 cells; format: functional, cell-based

Compound | zone of inhibition at 40 µg/disc (Bacillus subtilis) [mm] | IC50 (P388) [µM]
COC(=O)/C(=C1/OC(=O)C(c2ccc(OC)cc2)=C1O)c1ccc(OC)c(Cl)c1 | 7 | –
COC(=O)/C(=C1/OC(O)=C(c2ccc(OC)cc2)C1=O)c1ccc(OC)cc1 | 8 | –
COC(=O)/C(=C1/OC(=O)C(c2ccc(OC)cc2)=C1O)c1cc(Cl)c(OC)c(Cl)c1 | 4 | 20.6
